target: T1, FXR (Homo sapiens, UniProt Q96RI1); assay: In Vitro FXR Assay (TK): TK-ECRE-luc reporter in transfected CV-1 cells; assay type: cell-based; settings: CV-1 cells transfected with hFXR, hRXR, 18 h incubation, luminescence
T1 construct: expressed in transfected cells; host or cells: CV-1 cells
T1 sequence (Q96RI1 1-486): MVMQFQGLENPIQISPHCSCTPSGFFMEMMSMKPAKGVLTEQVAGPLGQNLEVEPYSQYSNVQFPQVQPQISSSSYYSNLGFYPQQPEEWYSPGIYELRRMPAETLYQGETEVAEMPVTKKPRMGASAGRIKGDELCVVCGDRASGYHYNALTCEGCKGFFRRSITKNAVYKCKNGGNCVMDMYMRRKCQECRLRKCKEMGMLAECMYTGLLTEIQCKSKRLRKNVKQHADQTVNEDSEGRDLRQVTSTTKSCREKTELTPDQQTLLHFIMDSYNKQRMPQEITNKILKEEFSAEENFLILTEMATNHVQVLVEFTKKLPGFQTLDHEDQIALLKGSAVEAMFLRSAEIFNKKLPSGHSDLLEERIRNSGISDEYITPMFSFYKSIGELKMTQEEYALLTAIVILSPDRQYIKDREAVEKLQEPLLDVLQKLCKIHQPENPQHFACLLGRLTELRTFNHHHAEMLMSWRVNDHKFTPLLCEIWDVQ
T1 sequence (P19793 1-462 partner): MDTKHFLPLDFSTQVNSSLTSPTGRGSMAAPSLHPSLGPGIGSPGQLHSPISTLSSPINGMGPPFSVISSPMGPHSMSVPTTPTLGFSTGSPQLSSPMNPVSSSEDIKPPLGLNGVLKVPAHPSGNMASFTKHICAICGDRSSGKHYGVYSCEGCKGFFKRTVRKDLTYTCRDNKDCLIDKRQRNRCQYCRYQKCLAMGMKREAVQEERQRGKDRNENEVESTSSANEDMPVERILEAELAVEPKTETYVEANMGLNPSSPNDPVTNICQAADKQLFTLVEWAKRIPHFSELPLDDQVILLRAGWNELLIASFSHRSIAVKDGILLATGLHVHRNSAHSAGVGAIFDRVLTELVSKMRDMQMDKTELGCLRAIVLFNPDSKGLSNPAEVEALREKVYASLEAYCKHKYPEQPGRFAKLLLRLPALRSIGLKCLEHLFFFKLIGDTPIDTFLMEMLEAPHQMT
Experimental: Example B-2: In Vitro FXR Assay (TK)
CV-1 cells were seeded at a density of 2,000,000 cells in a T175 flask with DMEM+10% charcoal double-stripped FBS and incubated at 37° C. in 5% CO2 for 18 h (O/N).
After 18 h of incubation, the medium in the T175 flask was changed with fresh DMEM+10% charcoal super-stripped serum. In a polypropylene tube, 2500 μL OptiMEM (Life Technologies, Cat #31985-062) was combined with expression plasmids for hFXR, hRXR, TK-ECRE-luc and pCMX-YFP. The tube was then briefly vortexed and incubated at room temperature for 5 minutes. Transfection reagent (X-tremeGENE HP from Roche, Cat #06 366 236 001) was added to the OptiMEM/plasmid mixture vortexed and incubated at room temperature for 20 minutes. Following incubation, the transfection reagent/DNA mixture complex was added to cells in the T175 flask and the cells were incubated at 37° C. in 5% CO2 for 18 h (O/N).
Compounds were serially diluted in DMSO and added to transfected CV-1 cells. The cells were then incubated for 18 hrs. The next day cells were lysed and examined for luminescence.

| Compound | EC50 [µM] |
| --- | --- |
| COC(=O)/C=C/c1cccc(N(Cc2ccc(-c3ccc(OC)c(C)c3)cc2)C(=O)C2CCN(S(C)(=O)=O)CC2)c1 [62.17, (E)-Methyl 3-(3-(N-((4′-methoxy-3′-methyl-[1,1′-biphenyl]-4-yl)methyl)-1-(methylsulfonyl)piperidine-4-carboxamido)phenyl)acrylate] | 1 to 10 |
| COC(=O)/C=C/c1cccc(N(Cc2ccc(-c3ccc(N4CCC4)cc3)cc2)C(=O)C2CCCCC2)c1 [75.2, (E)-Methyl 3-(3-(N-((4′-(azetidin-1-yl)-[1,1′-biphenyl]-4-yl)methyl)cyclohexanecarboxamido)phenyl) acrylate] | 1 to 10 |
| COC(=O)/C=C/c1cccc(N(Cc2ccc(-c3cnc(N(C)C)nc3)cc2)C(=O)C2CCCCC2)c1 [75.3, (E)-Methyl 3-(3-(N-(4-(2-(dimethylamino)pyrimidin-5-yl)benzyl)cyclohexanecarboxamido)phenyl) acrylate] | ≤ 1 |
| COC(=O)/C=C/c1cccc(N(Cc2ccc(-c3ccc(N(C)S(C)(=O)=O)cc3)cc2)C(=O)C2CCCCC2)c1 [75.6, (E)-Methyl 3-(3-(N-((4′-(N-methylmethylsulfonamido)-[1,1′-biphenyl]-4-yl)methyl)cyclohexanecarboxamido)phenyl) acrylate] | 1 to 10 |
| COC(=O)/C=C/c1cccc(N(Cc2ccc(-c3ccc(S(C)(=O)=O)cc3F)cc2)C(=O)C2CCCCC2)c1 [75.8, (E)-Methyl 3-(3-(N-((2′-fluoro-4′-(methylsulfonyl)-[1,1′-biphenyl]-4-yl)methyl)cyclohexanecarboxamido)phenyl) acrylate] | 1 to 10 |
| COC(=O)/C=C/c1cccc(N(Cc2ccc(-c3ccc(S(C)(=O)=O)c(Cl)c3)cc2)C(=O)C2CCCCC2)c1 [75.10, (E)-Methyl 3-(3-(N-((3′-chloro-4′-(methylsulfonyl)-[1,1′-biphenyl]-4-yl)methyl)cyclohexanecarboxamido)phenyl) acrylate] | > 10 |
| COC(=O)/C=C/c1cccc(N(Cc2ccc(-c3ccc4c(c3)c(F)nn4C)cc2)C(=O)C2CCCCC2)c1 [75.18, (E)-Methyl 3-(3-(N-(4-(3-fluoro-1-methyl-1H-indazol-5-yl)benzyl)cyclohexanecarboxamido)phenyl) acrylate] | ≤ 1 |
| COC(=O)/C=C/c1cccc(N(Cc2ccc(-c3ccc4c(C)nsc4c3)cc2)C(=O)C2CCCCC2)c1 [75.19, (E)-Methyl 3-(3-(N-(4-(3-methylbenzo[d]isothiazol-6-yl)benzyl)cyclohexanecarboxamido)phenyl) acrylate] | ≤ 1 |
| CC(C)COC(=O)/C=C/c1cccc(N(Cc2ccc(-c3ccc(N(C)C)cc3)cc2)C(=O)C2CCCCC2)c1 [86.2, (E)-Isobutyl 3-(3-(N-((4′-(dimethylamino)-[1,1′-biphenyl]-4-yl)methyl)cyclohexanecarboxamido)phenyl) acrylate] | > 10 |
| COCCOC(=O)/C=C/c1cccc(N(Cc2ccc(-c3ccc(N(C)C)cc3)cc2)C(=O)C2CCCCC2)c1 [86.3, (E)-2-Methoxyethyl 3-(3-(N-((4′-(dimethylamino)-[1,1′-biphenyl]-4-yl)methyl)cyclohexanecarboxamido)phenyl) acrylate] | 1 to 10 |
| CN(C)CCOC(=O)/C=C/c1cccc(N(Cc2ccc(-c3ccc(N(C)C)cc3)cc2)C(=O)C2CCCCC2)c1 [86.4, (E)-2-(Dimethylamino)ethyl 3-(3-(N-((4′-(dimethylamino)-[1,1′-biphenyl]-4-yl)methyl)cyclohexanecarboxamido)phenyl) acrylate] | > 10 |
| CN(C)c1ccc(-c2ccc(CN(C(=O)C3CCCCC3)c3cccc(/C=C/C(=O)OCC(F)(F)F)c3)cc2)cc1 [86.6, (E)-2,2,2-Trifluoroethyl 3-(3-(N-((4′-(dimethylamino)-[1,1′-biphenyl]-4-yl)methyl)cyclohexanecarboxamido)phenyl) acrylate] | 1 to 10 |

Second part, the compound after the results:

| EC50 [µM] | Compound |
| --- | --- |
| 1 to 10 | COC(=O)/C=C/c1cccc(N(Cc2ccc(-c3ccc4c(c3)nnn4C)cc2)C(=O)C2CCCCC2)c1 [75.1, (E)-Methyl 3-(3-(N-(4-(1-methyl-1H-benzo[d][1,2,3]triazol-5-yl)benzyl)cyclohexanecarboxamido)phenyl) acrylate] |
| 1 to 10 | COC(=O)/C=C/c1cccc(N(Cc2ccc(-c3cnc(N(C)C)cn3)cc2)C(=O)C2CCCCC2)c1 [75.4, (E)-Methyl 3-(3-(N-(4-(5-(dimethylamino)pyrazin-2-yl)benzyl)cyclohexanecarboxamido)phenyl) acrylate] |
| 1 to 10 | COC(=O)/C=C/c1cccc(N(Cc2ccc(-c3ccc(N(C)C)nn3)cc2)C(=O)C2CCCCC2)c1 [75.5, (E)-Methyl 3-(3-(N-(4-(6-(dimethylamino)pyridazin-3-yl)benzyl)cyclohexanecarboxamido)phenyl) acrylate] |
| > 10 | COC(=O)/C=C/c1cccc(N(Cc2ccc(-c3ccc(S(C)(=O)=O)c(F)c3)cc2)C(=O)C2CCCCC2)c1 [75.7, (E)-Methyl 3-(3-(N-((3′-fluoro-4′-(methylsulfonyl)-[1,1′-biphenyl]-4-yl)methyl)cyclohexanecarboxamido)phenyl) acrylate] |
| 1 to 10 | COC(=O)/C=C/c1cccc(N(Cc2ccc(-c3ccc4ncsc4c3)cc2)C(=O)C2CCCCC2)c1 [75.9, (E)-Methyl 3-(3-(N-(4-(benzo[d]thiazol-6-yl)benzyl)cyclohexanecarboxamido)phenyl) acrylate] |
| 1 to 10 | COC(=O)/C=C/c1cccc(N(Cc2ccc(-c3ccc4ocnc4c3)cc2)C(=O)C2CCCCC2)c1 [75.11, (E)-Methyl 3-(3-(N-(4-(benzo[d]oxazol-5-yl)benzyl)cyclohexanecarboxamido)phenyl) acrylate] |
| 1 to 10 | COC(=O)/C=C/c1cccc(N(Cc2ccc(-c3ccc4ncoc4c3)cc2)C(=O)C2CCCCC2)c1 [75.12, (E)-Methyl 3-(3-(N-(4-(benzo[d]oxazol-6-yl)benzyl)cyclohexanecarboxamido)phenyl) acrylate] |
| > 10 | COC(=O)/C=C/c1cccc(N(Cc2ccc(-c3ccc4cnoc4c3)cc2)C(=O)C2CCCCC2)c1 [75.13, (E)-Methyl 3-(3-(N-(4-(benzo[d]isoxazol-6-yl)benzyl)cyclohexanecarboxamido)phenyl) acrylate] |
| ≤ 1 | COC(=O)/C=C/c1cccc(N(Cc2ccc(-c3ccc4scnc4c3)cc2)C(=O)C2CCCCC2)c1 [75.14, (E)-Methyl 3-(3-(N-(4-(benzo[d]thiazol-5-yl)benzyl)cyclohexanecarboxamido)phenyl) acrylate] |
| > 10 | COC(=O)/C=C/c1cccc(N(Cc2ccc(-c3ccc4oncc4c3)cc2)C(=O)C2CCCCC2)c1 [75.15, (E)-Methyl 3-(3-(N-(4-(benzo[d]isoxazol-5-yl)benzyl)cyclohexanecarboxamido)phenyl) acrylate] |
| 1 to 10 | COC(=O)/C=C/c1cccc(N(Cc2ccc(-c3ccc4cnsc4c3)cc2)C(=O)C2CCCCC2)c1 [75.16, (E)-Methyl 3-(3-(N-(4-(benzo[d]isothiazol-6-yl)benzyl)cyclohexanecarboxamido)phenyl) acrylate] |
| 1 to 10 | COC(=O)/C=C/c1cccc(N(Cc2ccc(-c3ccc4sncc4c3)cc2)C(=O)C2CCCCC2)c1 [75.17, (E)-Methyl 3-(3-(N-(4-(benzo[d]isothiazol-5-yl)benzyl)cyclohexanecarboxamido)phenyl) acrylate] |
| > 10 | CN(C)c1ccc(-c2ccc(CN(C(=O)C3CCCCC3)c3cccc(/C=C/C(=O)OC4CCCCC4)c3)cc2)cc1 [86.1, (E)-Cyclohexyl 3-(3-(N-((4′-(dimethylamino)-[1,1′-biphenyl]-4-yl)methyl)cyclohexanecarboxamido)phenyl) acrylate] |
| > 10 | CN(C)c1ccc(-c2ccc(CN(C(=O)C3CCCCC3)c3cccc(/C=C/C(=O)OCC4CCCO4)c3)cc2)cc1 (centres unmarked) [86.5, (E)-(Tetrahydrofuran-2-yl) methyl 3-(3-(N-((4′-(dimethylamino)-[1,1′-biphenyl]-4-yl)methyl)cyclohexanecarboxamido)phenyl) acrylate] |

From patent US10626081B2, “Farnesoid X receptor agonists and uses thereof” (Metacrine, Inc., priority 2015, dated 2020)
